Patent publication US4687780A, “Anti-tumor compounds of platinum” (Johnson Matthey PLC, priority 1985, dated 1987)

Key:
[1] = reported by Harrap; cited from earlier work
[2] = LD50 (dose level causing 50% deaths), oral administration; format: in vivo, female Balb C^- mice; conditions: suspension in arachis oil
Experimental: (§1) Additionally, the same compounds were tested for activity against ADJ/PC6A plasmacytoma grown subcutaneously in female Balb C^- mice following oral administration as a suspension in arachis oil. Dosage levels were at 100μ mole/kg of body weight for pharmacokinetic tests to establish the extent of absorption into the systemic circulation.
(§2) Results are presented in terms of concentration (μg/ml) of Pt in the blood and cumulative percentage dose in urine, cage wash and faeces, all after specified time intervals. Results for anti-tumor effect are expressed as LD50 (mg/kg), ED90 (mg/kg), and TI (LD50 /ED90). The figures for LD50 (the dose level causing 50% deaths) and ED90 (the dose level causing a 90% reduction in tumor size) are determined by administering dosage levels ranging from lethal to non-tumor inhibitory. The therapeutic index (TI) is an indication of the selectivity of the compound as an anti-tumor agent.

B16 melanoma = test: anti-tumor activity against B16 melanoma in BDF1 female mice, i.p. 9 daily doses; format: in vivo; conditions: 9 daily doses from Day 1
Experimental: (§3) Compounds according to the invention were screened for anti-tumor activity against L1210 leukaemia and B16 melanoma in mice. The compounds were administered intraperitoneally as solutions or suspensions in water and "Tween" 80 as carrier to CDF1 male mice (L1210) and BDF1 female mice (B16). […] For each dose level, results are quoted in terms of median survival time (MST); the comparative effect (i.e. MST/MST control×100); average weight change (AWC) by Day 5 (L1210) or Day 6 (B16); and the number of mice alive (MA) at Day 5 (L1210) or Day 10 (B16).
(§4) Results were as follows for the compounds as prepared in Examples 3 and 4.
2. B16 (0.5 ml 10% BREI): treatment consisted of 9 daily doses beginning at Day 1.

ADJ/PC6A plasmacytoma = test: activity against ADJ/PC6A plasmacytoma grown subcutaneously in mice, oral administration; format: in vivo, female Balb C^- mice
Experimental: as §1, §2

malignant tumor = conditions: Phase I, reported by Harrap; cited from earlier work
L1210 leukaemia = test: anti-tumor activity against L1210 leukaemia in CDF1 male mice, i.p. single dose Day 1; format: in vivo; conditions: single dose Day 1
Experimental: as §3, §4
1. L1210 (1×10^6 cells): treatment consisted of single dose on Day 1.

[3] = pharmacokinetic tests: Pt in blood and cumulative percentage dose in urine, cage wash and faeces after oral administration; format: in vivo, female Balb C^- mice; conditions: oral, JM-8 at 50 mg/kg
Experimental: as §1, §2

**Q.** For `N.N.O=C([O-])C(O)C(=O)[O-].[Pt+2]` [JM-5, diammine(2-hydroxymalonato)platinum(II)], which screening results [1] is on record?
**A.** Its screening results is “only moderately promising on screening results”.

**Q.** What does the source list for `[NH2][Pt]1([NH2])[O]C(=O)C2(CCC2)C(=O)[O]1` [JM-8, reference compound]?
**A.** LD50 (dose level causing 50% deaths) [2]: 235 mg/kg; % T/C (MST/MST control×100) (B16 melanoma; 2 mg/kg): 112%; % T/C (MST/MST control×100) (B16 melanoma; 4 mg/kg): 115%; % T/C (MST/MST control×100) (B16 melanoma; 8 mg/kg): 150%; % T/C (MST/MST control×100) (B16 melanoma; 16 mg/kg): 176%; % T/C (MST/MST control×100) (B16 melanoma; 32 mg/kg): 176%; therapeutic index TI (LD50/ED90) (ADJ/PC6A plasmacytoma): 2.4; ED90 (dose level causing a 90% reduction in tumor size) (ADJ/PC6A plasmacytoma; suspension in arachis oil): 99 mg/kg; Phase I clinical trial outcome (malignant tumor): reasonably promising on a Phase I clinical trial; side-effects in Phase I clinical trial (malignant tumor): myelosuppression and to a lesser extent vomiting remained troublesome; % T/C (MST/MST control×100) (L1210 leukaemia; 4 mg/kg): 100%; % T/C (MST/MST control×100) (L1210 leukaemia; 8 mg/kg): 121%; % T/C (MST/MST control×100) (L1210 leukaemia; 16 mg/kg): 143%; % T/C (MST/MST control×100) (L1210 leukaemia; 32 mg/kg): 171%; % T/C (MST/MST control×100) (L1210 leukaemia; 64 mg/kg): 150%; % T/C (MST/MST control×100) (L1210 leukaemia; 128 mg/kg): 86%; Blood conc. of Pt ([3]; 1 hr): 2.4 μg/ml of whole blood; Blood conc. of Pt ([3]; 2 hrs): 1.7 μg/ml of whole blood; Blood conc. of Pt ([3]; 4 hrs): 0.72 μg/ml of whole blood; Blood conc. of Pt ([3]; 7 hrs): 0.63 μg/ml of whole blood; Blood conc. of Pt ([3]; 24 hrs): 0.25 μg/ml of whole blood; Urine dose (cumulative %) ([3]; 24 hrs): 10.3%; Blood conc. of Pt ([3]; 48 hrs): 0.25 μg/ml of whole blood; Urine dose (cumulative %) ([3]; 48 hrs): 10.8%

**Q.** Which screening results [1] does the source give for `CCC(C(=O)[O-])C(=O)[O-].N.N.[Pt+2]` [JM-10, diammine(2-ethylmalonato)-platinum(II)] here?
**A.** Its screening results is “only moderately promising on screening results”.
